Measured values taken from patent US6551999B1, “Angiogenesis inhibitor” (Senju Pharmaceutical Co., Ltd., priority 1995, dated 2003).

Tests used:
Type in all cases: biochemical
[1] = target: T1, cathepsin L (Homo sapiens, UniProt P07711); experiment: Assay of cathepsin L-inhibitory activity (Z-Phe-Arg-MCA); conditions: 20 minutes at 30° C., pH 5.5
T1 construct: purchased Cosmo Bio
Experimental: The activity of cathepsin L (Cosmo Bio), a cysteine protease, was assayed by the method described in the literature [Methods in Enzymology, 80, 535-561, 1981]. Thus, to a solution containing 85 mM acetate buffer (pH 5.5), 2 mM dithiothreitol, 1 mM EDTA, 2 μg cathepsin L, and a varying concentration of the test compound was added 50 μl of 20 μM carbobenzoxy-L-phenylalanyl-L-arginine-4-methylcoumaryl-7-amide (Z-Phe-Arg-MCA) to initiate the reaction at the final liquid volume of 200 μl. After 20 minutes of reaction at 30° C., 20 μl of 1 M Tris-HCl (pH 8.0) was added so as to stop the reaction. The amount of liberated 4-methyl-7-aminocoumarin was determined with a fluorospectrometer at an excitation wavelength of 360 nm and a fluorescent emission wave length of 450 nm. Using the value found without addition of the test drug as control and the value found without addition of the enzyme as blank, IC50 was determined in the same manner as above.

[2] = target: T2, μ-calpain (Homo sapiens, UniProt P07384); experiment: μ-Calpain-inhibitory activity (casein substrate); conditions: 60 minutes at 30° C., pH 7.4, 4 mM calcium chloride
T2 construct: purchased Nakalai Tesque
T2 sequence (P07384 1-714): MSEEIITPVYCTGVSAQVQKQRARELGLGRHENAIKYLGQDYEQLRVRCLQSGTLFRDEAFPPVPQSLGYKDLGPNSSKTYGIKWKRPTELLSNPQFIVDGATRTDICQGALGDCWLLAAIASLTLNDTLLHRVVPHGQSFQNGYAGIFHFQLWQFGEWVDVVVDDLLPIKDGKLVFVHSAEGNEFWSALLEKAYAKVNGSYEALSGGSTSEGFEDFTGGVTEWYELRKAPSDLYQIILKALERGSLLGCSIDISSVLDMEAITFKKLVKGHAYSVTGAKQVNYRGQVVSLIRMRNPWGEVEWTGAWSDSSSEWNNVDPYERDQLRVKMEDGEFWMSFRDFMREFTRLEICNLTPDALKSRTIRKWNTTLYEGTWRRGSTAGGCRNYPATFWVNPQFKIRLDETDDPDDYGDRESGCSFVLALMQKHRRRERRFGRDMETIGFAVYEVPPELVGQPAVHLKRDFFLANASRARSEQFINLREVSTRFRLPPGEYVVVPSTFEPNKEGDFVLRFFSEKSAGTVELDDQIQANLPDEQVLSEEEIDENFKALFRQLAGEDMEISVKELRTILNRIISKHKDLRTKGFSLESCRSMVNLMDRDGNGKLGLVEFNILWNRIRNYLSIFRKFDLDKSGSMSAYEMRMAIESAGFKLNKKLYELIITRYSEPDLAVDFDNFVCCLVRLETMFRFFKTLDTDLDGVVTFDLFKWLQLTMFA
T2 sequence (P04632 1-268 partner): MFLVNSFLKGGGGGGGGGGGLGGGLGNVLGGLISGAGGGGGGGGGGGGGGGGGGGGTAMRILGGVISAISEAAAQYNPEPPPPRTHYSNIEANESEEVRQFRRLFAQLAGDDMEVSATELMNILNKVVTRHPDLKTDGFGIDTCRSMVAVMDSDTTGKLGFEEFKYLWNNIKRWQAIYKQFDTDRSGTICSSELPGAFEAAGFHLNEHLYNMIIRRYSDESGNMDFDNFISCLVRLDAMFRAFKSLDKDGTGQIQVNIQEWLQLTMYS
Experimental: Thus, to a solution containing 0.5 mg/ml casein, 50 mM Tris-HCl (pH 7.4), 20 mM dithiothreitol, and 4 mM calcium chloride was added 2.5 μl of a dimethyl sulfoxide solution containing a varying concentration of the test drug as well as 0.03 unit of μcalpain to initiate the reaction. The final liquid volume was 250 μl. After 60 minutes of reaction at 30° C., 100 μl of the reaction mixture was transferred to another vessel, to which 50 μl of purified water and 100 μl of 50% Coumassie brilliant blue solution were added. […] As a control, 2.5 μl of dimethyl sulfoxide not containing the test drug was added and the mixture was treated in the same manner as above. […] Similarly, the value found by adding 0.2 mM EDTA in lieu of 4 mM aqueous calcium chloride solution was used as the blank value. […] [formula]

[3] = target: T3, trypsin (UniProt P00760); experiment: Assay of trypsin-inhibitory activity (casein substrate); conditions: read-out: Trypsin 50% Inhibitory concentration (IC50); 60 minutes at 30° C., pH 8.0
T3 sequence (P00760 1-246): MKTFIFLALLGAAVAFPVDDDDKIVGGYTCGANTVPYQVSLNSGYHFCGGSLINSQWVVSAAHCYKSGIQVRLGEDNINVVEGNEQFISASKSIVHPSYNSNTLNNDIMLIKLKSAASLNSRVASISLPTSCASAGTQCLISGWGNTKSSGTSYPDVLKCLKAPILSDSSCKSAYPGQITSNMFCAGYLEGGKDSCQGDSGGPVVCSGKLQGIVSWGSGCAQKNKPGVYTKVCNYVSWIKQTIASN
Experimental: (§1) The activity of papain which is a cysteine protease and of trypsin (Sigma) which is a serine protease was assayed in accordance with the method described in the literature [Anal. Biochem., 208, 387-392, 1993]. Thus, to a solution containing 0.5 mg/ml casein, 50 mM Tris-HCl (pH 8.0), 20 mM dithiothreitol, and 0.2 mM EDTA was added 2.5 μl of dimethyl sulfoxide containing a varying concentration of the test drug as well as 0.03 unit of papain or trypsin to initiate the reaction. The final liquid volume was adjusted to 250 μl. After 60 minutes of reaction at 30° C., 100 μl of the reaction mixture was transferred to another vessel and following addition of 50 μl of purified water and 100 μl of 50% Coumassie brilliant blue solution, the mixture was allowed to stand at room temperature for 15 minutes. The absorbance of the mixture was then measured at 595 nm. Using the value found similarly by adding 2.5 μl of dimethyl sulfoxide not containing the test drug as control and the value found without addition of the enzyme as blank, IC50 was determined in the same manner as above.

[4] = target: T4, papain (Carica papaya, UniProt P00784); experiment: Assay of papain-inhibitory activity (casein substrate); conditions: 60 minutes at 30° C., pH 8.0
T4 sequence (P00784 134-345): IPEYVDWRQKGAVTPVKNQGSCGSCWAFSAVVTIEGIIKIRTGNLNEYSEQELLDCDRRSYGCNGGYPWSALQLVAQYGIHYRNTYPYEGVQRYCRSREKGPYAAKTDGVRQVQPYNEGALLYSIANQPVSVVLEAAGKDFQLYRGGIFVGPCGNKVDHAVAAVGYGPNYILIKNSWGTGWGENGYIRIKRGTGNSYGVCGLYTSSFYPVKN
Experimental: as §1

T1 sequence (P07711 114-333, species assumed): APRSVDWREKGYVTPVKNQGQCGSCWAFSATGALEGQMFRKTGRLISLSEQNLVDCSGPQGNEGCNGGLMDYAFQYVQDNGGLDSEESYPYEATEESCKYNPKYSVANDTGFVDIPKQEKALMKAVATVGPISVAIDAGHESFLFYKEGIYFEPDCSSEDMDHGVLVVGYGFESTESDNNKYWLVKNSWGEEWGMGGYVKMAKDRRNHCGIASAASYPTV

SMILES	IC50 [1] [µM]	IC50 [2] [µM]	IC50 [3] [µM]	IC50 [4] [µM]
O=C(O)[C@H]1O[C@@H]1C(=O)N[C@@H](Cc1ccccc1)C(=O)N1CCN(c2ccc(F)cc2)CC1 [Compound 11]	0.012	2.9	> 3000	0.11
CC(C)C[C@H](NC(=O)[C@H]1O[C@@H]1C(=O)O)C(=O)N1CCN(c2ccc(F)cc2)CC1 [Compound 13]	0.029	0.81	> 3000	0.079
Cc1ccc(S(=O)(=O)N2CCN(C(=O)[C@H](CC(C)C)NC(=O)[C@H]3O[C@@H]3C(=O)O)CC2)cc1 [Compound 16, (2s,3s)-3-[[[[(1s)-1-[[4-(4-methylphenylsulfonyl)-1-piperazinyl]carbonyl]-3-methyl]butyl]amino]carbonyl]oxiranecarboxylic acid]	0.082	0.64	> 3000	0.21
CC(C)C[C@H](NC(=O)[C@H]1O[C@@H]1C(=O)O)C(=O)N1CCN(c2ccccc2Cl)CC1 [Compound 17, (2s,3s)-3-[[[[(1s)-1-[[4-(2-chlorophenyl)-1-piperazinyl]carbonyl]-3-methyl]butyl]amino]carbonyl]oxiranecarboxylic acid]	0.027	0.35	> 3000	0.062
O=C(O)[C@H]1O[C@@H]1C(=O)NCC(=O)N1CCN(c2ccccc2Cl)CC1 [Compound 22, (2s,3s)-3-[[[[[4-(2-chlorophenyl)-1-piperazinyl]carbonyl]methyl]amino]carbonyl]oxiranecarboxylic acid]	38	18	> 3000	4
CCC(C)[C@H](NC(=O)[C@H]1O[C@@H]1C(=O)O)C(=O)N1CCN(c2ccccc2Cl)CC1 (stereo partly drawn) [Compound 24, (2s,3s)-3-[[[[(1s)-1-[[4-(2-chlorophenyl)-1-piperazinyl]carbonyl]-2-methyl]butyl]amino]carbonyl]oxiranecarboxylic acid]	0.009	0.84	> 3000	0.047
